Converted amounts (≈) assume the structure as drawn.

A short description of data set [1]: Solubility of the compound. The data set is classed as physicochemical.
In data set [2] the test system is Hepatitis C virus. Description: Antiviral activity against HCV GT1b-genotype assessed as viral growth inhibition measured after 24 hrs. The data set is classed as functional, organism-based, Hepacivirus hominis. Particulars: for EC50: Hepatitis C virus, GT1b-genotype, 24 h.
Data set [3] relates to Hepatitis C virus. In words: Antiviral activity against HCV GT1a-genotype assessed as inhibition of viral replication. In kind it is functional, organism-based, Hepacivirus hominis.
Data set [4] relates to Pregnane X receptor (Homo sapiens). In words: PXR activation.
Data set [5] is described as follows: Oral bioavailability in Sprague-Dawley rat at 10 mg/kg measured after 4 hrs. The data set is classed as ADME, organism-based. Particulars: in vivo.
Data set [6] concerns the target T1, Nuclear receptor subfamily 1 group I member 2 (Homo sapiens, UniProt O75469).
T1 sequence (O75469 whole entry): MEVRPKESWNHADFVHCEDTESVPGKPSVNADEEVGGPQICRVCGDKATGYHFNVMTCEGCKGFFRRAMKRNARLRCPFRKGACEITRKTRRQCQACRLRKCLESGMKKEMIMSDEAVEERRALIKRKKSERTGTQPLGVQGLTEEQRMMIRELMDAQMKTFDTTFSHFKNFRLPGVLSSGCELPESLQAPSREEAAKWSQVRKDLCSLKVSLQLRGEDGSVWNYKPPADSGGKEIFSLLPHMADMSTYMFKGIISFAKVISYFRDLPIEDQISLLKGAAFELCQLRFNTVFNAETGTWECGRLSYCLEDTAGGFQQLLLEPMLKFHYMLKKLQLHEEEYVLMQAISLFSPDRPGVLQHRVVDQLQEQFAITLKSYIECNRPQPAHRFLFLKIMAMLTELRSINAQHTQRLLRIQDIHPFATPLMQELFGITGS
Description: Inhibition of PXR (unknown origin).

A short description of data set [7]: Clearance in Wistar rat at 10 mg/kg, po measured after 4 hrs. In kind it is ADME, organism-based. Particulars: in vivo.
The nature of data set [8]: Clearance in Wistar rat at 10 mg/kg, iv measured after 4 hrs. In kind it is ADME, organism-based. The settings on record: in vivo.
Data set [9] has as its system Hepatitis C virus. Description: Antiviral activity against HCV GT1b-genotype assessed as inhibition of viral replication measured after 24 hrs. The data set is classed as functional, organism-based, Hepacivirus hominis.
Data set [10] has as its system Hepatitis C virus. Description: Antiviral activity against HCV genotype 1a. The data set is classed as functional, organism-based, Hepacivirus hominis.
A short description of data set [11]: Aqueous solubility of the compound at pH 2.2 measured after 24 hrs. The data set is classed as physicochemical.

With `COc1ccc2c(c1)[C@@H]1C[C@]1(C(=O)N1CC(C)N(C)C(C)C1)Cn1c-2c(C2CCCCC2)c2ccc(C(=O)NS(=O)(=O)N(C)C)cc21` (some centres not stated), the solubility in data set [1] was 34 µg/mL (≈ 51.4 µM). Moreover, the EC50 is 0.003 µM in the data set with Hepatitis C virus [2], 0.001 µM in the data set with Hepatitis C virus [3] and > 50 µM in data set [4]. In data set [5], this compound registered a bioavailability of 17%.
Take `COc1ccc2c(c1)C=C(C(=O)N1C[C@@H](C)O[C@@H](C)C1)Cn1c-2c(C2CCCCC2)c2ccc(C(=O)NS(=O)(=O)N(C)C)cc21`: the EC50 in the data set on Hepatitis C virus [2] and in the data set with Hepatitis C virus [3] was 0.04 µM throughout. Besides, the IC50 in data set [6] was > 10 µM.
As for `COc1ccc2c(c1)C1CC1(C(=O)N1CC3CCC(C1)N3C)Cn1c-2c(C2CCCCC2)c2ccc(C(=O)NS(=O)(=O)N(C)C)cc21` (racemic), the concentration giving a half-maximal response (EC50) was 0.039 µM in the data set with Hepatitis C virus [2] and 0.016 µM in the data set on Hepatitis C virus [3]. The results for the CL in data set [7] and in data set [8] were 55.4 mg/mL/kg and 20.6 mg/mL/kg, respectively.
Turning to `O=C(O)c1ccc2c(C3CCCCC3)c3n(c2c1)CC(C(=O)N1CCOCC1)Cc1ccccc1-3` (racemic), the EC50 in the data set with Hepatitis C virus [3] turned out to be 0.002 µM; in the data set on Hepatitis C virus [9] it was 0.2 µM.
The compound `COc1ccc2c(c1)[C@@H]1C[C@]1(C(=O)N1[C@@H]3CC[C@H]1CN(C)C3)Cn1c-2c(C2CCCCC2)c2ccc(C(=O)NS(=O)(=O)N(C)C)cc21` [BECLABUVIR] had an EC50 in the data set with Hepatitis C virus [10] of 0.2 µM. In addition, the Activity in the data set on Hepatitis C virus [2] (time 24 hrs) is 1.3 log10 IU/mL. Besides, the solubility at 24 h in data set [11] is > 1600 µg/mL.
